Experimental data published in publication PMC9181926, “Synthesis and Antiproliferative Activity of Novel Dehydroabietic Acid-Chalcone Hybrids” (Molecules, 2022).
Blank lines part the entries; values can stand above or below the compound they belong to.

Experiments:
Type in all cases: cell-based, human
MDA-MB-231 cells = assay: Antiproliferation assay (cell counting, 48 h) in MDA-MB-231 breast cancer cells; details: MDA-MB-231 cells, 48 h incubation, cell counting
Text: (§1) Regarding the different characteristics of the used breast cancer cell lines, we can notice that MDA-MB-231 and Hs578T are triple negative.
(§2) Primary skin normal fibroblasts were kindly provided by Prof. Emer.

Hs578T cells = assay: Antiproliferation assay (cell counting, 48 h) in Hs578T breast cancer cells; details: Hs578T cells, 48 h incubation, cell counting
Text: as §1, §2

MCF-7 cells = assay: Antiproliferation assay (cell counting, 48 h) in MCF-7 breast cancer cells; details: MCF-7 cells, 48 h incubation, cell counting
Text: as §1, §2

Compound: COC(=O)[C@]1(C)CCC[C@]2(C)c3cc(O)c(C(C)=O)cc3CCC12 (stereo partly drawn) [Compound 28]
IC50 (MDA-MB-231 cells; Homo sapiens): 115 ± 40.1 µM | IC50 (Hs578T cells; Homo sapiens, Hs-578T): 136 ± 2.47 µM | IC50 (MCF-7 cells; Homo sapiens, MCF7): 207 ± 7.28 µM

IC50 (MDA-MB-231 cells; Homo sapiens): > 75 µM | IC50 (Hs578T cells; Homo sapiens, Hs-578T): > 75 µM | IC50 (MCF-7 cells; Homo sapiens, MCF7): > 75 µM
Compound: COC(=O)[C@]1(C)CCC[C@]2(C)c3cc(OC)c(C(=O)/C=C/c4cccnc4)cc3CCC12 (stereo partly drawn) [Compound 32, (1R,4aS)-methyl 6-methoxy-1,4a-dimethyl-7-((E)-3-(pyridin-3-yl)acryloyl)-1,2,3,4,4a, 9,10,10a-octahydrophenanthrene-1-carboxylate]

Compound: COC(=O)[C@]1(C)CCC[C@]2(C)c3cc(O)c(C(=O)/C=C/c4ccc(Br)s4)cc3CCC12 (stereo partly drawn) [Compound 45, (1R,4aS)-methyl 7-((E)-3-(5-bromothiophen-2-yl)acryloyl)-6-hydroxy-1,4a-dimethyl-1,2,3,4,4a,9,10,10a-octahydrophenanthrene-1-carboxylate]
IC50 (MDA-MB-231 cells; Homo sapiens): > 75 µM | IC50 (Hs578T cells; Homo sapiens, Hs-578T): > 75 µM | IC50 (MCF-7 cells; Homo sapiens, MCF7): 29.9 ± 5.26 µM

Compound: COC(=O)[C@]1(C)CCC[C@]2(C)c3cc(O)c(C(=O)/C=C/c4c[nH]c5ccccc45)cc3CCC12 (stereo partly drawn) [Compound 46, (1R,4aS)-methyl 7-((E)-3-(1H-indol-3-yl)acryloyl)-6-hydroxy-1,4a-dimethyl-1,2,3,4,4a,9,10,10a-octahydrophenanthrene-1-carboxylate]
IC50 (MDA-MB-231 cells; Homo sapiens): > 75 µM | IC50 (Hs578T cells; Homo sapiens, Hs-578T): > 75 µM | IC50 (MCF-7 cells; Homo sapiens, MCF7): > 75 µM

Compound: COC(=O)[C@]1(C)CCC[C@]2(C)c3cc(O)c(C(=O)/C=C/c4csc5ccccc45)cc3CCC12 (stereo partly drawn) [Compound 47, (1R,4aS)-methyl 7-((E)-3-(benzo[b]thiophen-3-yl)acryloyl)-6-hydroxy-1,4a-dimethyl-1,2,3,4,4a,9,10,10a-octahydrophenanthrene-1-carboxylate]
IC50 (MDA-MB-231 cells; Homo sapiens): 40.4 ± 0.67 µM | IC50 (Hs578T cells; Homo sapiens, Hs-578T): > 75 µM | IC50 (MCF-7 cells; Homo sapiens, MCF7): 12.5 ± 8.43 µM

Compound: COC(=O)[C@]1(C)CCC[C@]2(C)c3cc(O)c(/C=C/C(=O)c4ccc(Br)s4)cc3CCC12 (stereo partly drawn) [Compound 53, (1R,4aS)-methyl 7-((E)-3-(5-bromothiophen-2-yl)-3-oxoprop-1-en-1-yl)-6-hydroxy-1,4a-dimthyl-1,2,3,4,4a,9,10,10a-octahydrophenanthrene-1-carboxylate]
IC50 (MDA-MB-231 cells; Homo sapiens): 17.1 ± 0.41 µM | IC50 (Hs578T cells; Homo sapiens, Hs-578T): 28.4 ± 1.97 µM | IC50 (MCF-7 cells; Homo sapiens, MCF7): 41.4 ± 1.74 µM

Compound: (1R,4aS)-6-hydroxy-1,4a-dimethyl-7-((E)-3-(naphthalen-2-yl)acryloyl)-1,2,3,4,4a,9,10, 10a-octahydrophenanthrene-1-carboxylic acid [Compound 37]
IC50 (MDA-MB-231 cells): > 75 µM | IC50 (Hs578T cells): > 75 µM | IC50 (MCF-7 cells): 11.4 ± 1.55 µM

Compound: (1R,4aS)-methyl 6-hydroxy-1,4a-dimethyl-7-((E)-3-(2,4,5-trifluorophenyl)acryloyl)-1,2,3,4,4a,9,10,10a-octahydrophenanthrene-1-carboxylate [Compound 36]
IC50 (MDA-MB-231 cells): > 75 µM | IC50 (Hs578T cells): > 75 µM | IC50 (MCF-7 cells): > 75 µM

IC50 (MDA-MB-231 cells): > 75 µM | IC50 (Hs578T cells): > 75 µM | IC50 (MCF-7 cells): 23.9 ± 4.47 µM
Compound: (1R,4aS)-methyl 7-((E)-3-(2-hydroxyphenyl)-3-oxoprop-1-en-1-yl)-6-methoxy-1,4a-dimethyl-1,2,3,4,4a,9,10,10a-octahydrophenanthrene-1-carboxylate [Compound 31]

Compound: (1R,4aS)-methyl 7-((E)-3-(benzofuran-2-yl)acryloyl)-6-hydroxy-1,4a-dimethyl-1,2,3, 4,4a,9,10, 10a-octahydrophenanthrene-1-carboxylate [Compound 52]
IC50 (MDA-MB-231 cells): > 75 µM | IC50 (Hs578T cells): 60.2 ± 6.94 µM | IC50 (MCF-7 cells): > 75 µM

Compound: (E)-1-((4bS,8R)-3-hydroxy-8-methoxy-4b,8-dimethyl-4b,5,6,7,8,8a,9,10-octahydrophenanthren-2-yl)-3-(pyridin-2-yl)prop-2-en-1-one [Compound 34]
IC50 (MDA-MB-231 cells): > 75 µM | IC50 (Hs578T cells): 28.1 ± 7.76 µM | IC50 (MCF-7 cells): 21.4 ± 0.6 µM

Compound: (E)-3-(furan-2-yl)-1-((4bS,8R)-3-hydroxy-8-methoxy-4b,8-dimethyl-4b,5,6,7,8,8a,9,10-octahydrophenanthren-2-yl)prop-2-en-1-one [Compound 42]
IC50 (MDA-MB-231 cells): > 75 µM | IC50 (Hs578T cells): 43.3 ± 4.32 µM | IC50 (MCF-7 cells): 37 ± 6.89 µM
